# Assay results: patent publication US10071077B2, “Use of enoximone in the treatment of atopic immune-related disorders, in pharmaceutical composition as well as in pharmaceutical preparation” (BREAKTHROUGH MEDICAL RESEARCH B.V., priority 2014, dated 2018)
# Legend:
# [1] = test system: Human PBMCs stimulated with tetanus toxoid (CD4 T-cells); assay type: cell-based
# [2] = test system: Human basophils stimulated with anti IgE; assay: Basophil degranulation assay; assay type: cell-based; conditions: anti IgE stimulation
# Procedure: PBMCs including basophils were treated with diluent or several doses of enoximone at 37° C. for half an hour. Next the cells were washed and incubated with anti IgE antibodies 5 µg/ml for 20 minutes at 37° C. for 20 minutes washed again at 4° C. and consequently stained for flowcytometric with CD123-BV650, CD203c-PE, CD107a-FITC, HLA-DR-PerCPCy5.5 and FcεRI-APC at 4° C. for 30 minutes. Cells were acquire with a LSRII and analyzed with Flowjo X. Basophils were identified as FcεRI+, CD123+ and HLA-DR− cells. Degranulated and/or activated basophils stained positive for CD203c and CD107a. 100% degranulated basophils were set as the % of degranulated basophils treated with diluent and stimulated with 5 µg/ml anti IgE. Proportion of inhibition was calculated as % of degranulated basophils divided by the maximal % of diluent treated degranulated basophils.
# FIG. 4 Human PBMCs including basophils were treated with diluent or several doses of enoximone and cells were activated by incubation with anti IgE antibodies. Data plotted show the mean proportion of inhibition was calculated as % degranulated basophils (CD123^+FceRI^+HLA-DR^− CD107a^+CD203c^+ cells) pretreated with enoximone divided by % of diluent treated degranulated basophils (n=3).
# [3] = test system: patients with asthma; assay: Trials 1-3: treatment of asthma patients with enoximone; assay type: in vivo, human
# Procedure: A patient was to be operated in connection with a mammary carcinoma. They had known difficult-to-treat asthma and before the operation they received 30 mg prednisone per day as extra medication in addition to their beta-2 agonists and parasympatholytics treatment, but their breathing remained considerably obstructed. Ten minutes before the start of the anaesthesia they were given 25 mg enoximone intravenously. […] Ultimately, after a single administration of enoximone, they stayed symptom-free for two months. Based on the above experience, a second patient was treated. According to their lung specialist, they suffered from untreatable asthma and had been completely bed-ridden for a long time, among other reasons due to high doses of the traditional medication (next to some other drugs they received 50 mg prednisone per day). Inhalation therapy worked for a few minutes only due to the severe bronchoconstriction, the drying of the airways and the consequential sticky obstructive mucus. The patient received 20 mg enoximone orally in two doses of 10 mg at a 15 minutes interval. […] They remained symptom-free for 7 days. During the first day after the first administration, the patient coughed a lot, which loosened the sticky mucus. After 7 days, they received another 10 mg dose of enoximone orally, after which they again remained symptom-free for 7 days. They were ultimately able to drastically reduce their prednisone use to 5 mg per day (complete phasing out was not possible in connection with their Mixed Connected Tissue Disease). They were able to build up their condition relatively quickly with a maintenance dose of 10 mg of enoximone once every 4 days. After 3 months, they were able to perform their normal household activities again and go back to work. After another month, they were even able to do some sport with caution. Following trials 1 and 2, several patients with light to severe asthma symptoms, who up to that time had been treated exclusively with the traditional therapy with little or no results, were also treated with enoximone. […] Their individual dosage depended on the severity of the disorder. The dosage ranged from 0.1 to 0.3 mg/kg body weight, mostly in a maintenance dosage of twice a week, based on the time of recurrence of the symptoms.
# [4] = test system: HDM driven allergic airway inflammation; assay: House dust mite (HDM) allergic airway inflammation model, treatment strategy 1 (allergy induction); assay type: in vivo, C57bl/6 mice; conditions: orally (2.5 and 0.25 μg), treatment during challenge, FIG. 5B
compound,measurement,setting,value
"CSc1ccc(C(=O)c2[nH]c(=O)[nH]c2C)cc1 [enoximone, 1,3-dihydro-4-methyl-5-[4-(methylthio)benzoyl]-2H-imidazol-2-on]",proliferation of CD4 positive T-cells (proportion of divided CD4 T-cells),[1],significantly reduced
same,inhibition at 20 µM,"[2]; Homo sapiens, 20 μM enoximone, FIG. 4, read-out: inhibition of basophil activation/degranulation (CD107a and CD203c positivity)",> 50%
same,inhibition at 1000 µM,"[2]; Homo sapiens, 1000 μM enoximone, FIG. 4, read-out: inhibition of basophil activation/degranulation (CD107a and CD203c positivity)",> 90%
same,basophil activation (CD107a and CD203c positivity),[2]; enoximone 20-1000 μM,reduced basophil activation
same,symptom-free period,[3]; Trial 1: after a single administration of 25 mg intravenously,two months
same,time to disappearance of asthma symptoms,"[3]; Trial 1: person, difficult-to-treat asthma, 25 mg intravenously",within a few minutes
same,symptom-free period,[3]; Trial 2: after 20 mg orally in two doses of 10 mg at a 15 minutes interval,7 days
same,symptom-free period,[3]; Trial 2: after another 10 mg dose orally after 7 days,7 days
same,time until able to perform normal household activities and go back to work,[3]; Trial 2: maintenance dose of 10 mg once every 4 days,3 months
same,prednisone use after reduction,[3]; Trial 2: previously 50 mg prednisone per day,5 mg per day
same,time to disappearance of asthma symptoms,"[3]; Trial 2: untreatable asthma, after first oral dose of 10 mg",within two minutes
same,progress of patients with light to severe asthma symptoms,"[3]; Trial 3: 0.1 to 0.3 mg/kg body weight, mostly twice a week",remarkable and fast progress
same,allergic and immune-related symptoms,[3]; Trial 3: five patients,substantially milder or even disappeared altogether
same,time to improved breathing,[3]; administered orally in cases of asthma,within ten minutes
same,time to reaction,[3]; all the patients treated,within a few minutes
same,symptom-free period,"[3]; all the patients treated, after only one dose",remained days or weeks symptom-free
same,duration of improvement of the dyspnoea symptoms,[3]; as maintenance medication,from a few days to several weeks or several months
same,duration of the effects of the compound,[3]; compared with the half life of 4 hours,lasting well beyond a month
same,side effects,"[3]; disappeared after one day, lowering the dose offered a solution",two patients reported headaches on the day of intake
same,time to improved breathing,[3]; intravenous administration in cases of asthma,within as little as one minute
same,"eosinophil numbers in BAL, HDM/PBS treated mice compared to enoximone treated mice",[4],significantly higher
